Laboratory results taken from patent US6326361A, “Gangliosides with immunosuppressive activity” (The Regents of the University of California, priority 1993, dated 2001).

What was measured:
[1] = system: normal human peripheral blood mononuclear cells (PBMC); test: Inhibition of normal human lymphoproliferative responses to a panel of mitogens and soluble antigens (3H-thymidine uptake); format: cell-based; conditions: 0.5% plasma; for 3H-thymidine uptake: mean of triplicate cultures
[2] = system: normal human peripheral blood mononuclear cells (PBMC); format: cell-based; conditions: for IC90: tetanus toxoid, 2-3 separate experiments/ganglioside, read-out: ID90 (ganglioside concentration required to cause 90% inhibition of the lymphoproliferative response)
[3] = Candida Antigen, ganglioside 2.5 μM
[4] = Candida Antigen, ganglioside 10 μM
[5] = Diptheria Toxoid, ganglioside 2.5 μM
[6] = Diptheria Toxoid, ganglioside 10 μM
[7] = Tetanus Toxoid, ganglioside 10 μM

For GD1a, the “% inhibition” value [1, 3] was 45%, the 3H-thymidine uptake [1, 3] was 3.2 net cpm and the “% inhibition” value [1, 4] was 84%. The 3H-thymidine uptake [1, 4] was 0.9 net cpm, the “% inhibition” value ([1]; ConA, ganglioside 2.5 μM) was 0% and the 3H-thymidine uptake ([1]; ConA, ganglioside 2.5 μM) was 84.3 net cpm. The “% inhibition” value ([1]; ConA, ganglioside 10 μM) was 37%, the 3H-thymidine uptake ([1]; ConA, ganglioside 10 μM) was 49.0 net cpm and the “% inhibition” value [1, 5] was 60%. The 3H-thymidine uptake [1, 5] was 2.1 net cpm, the “% inhibition” value [1, 6] was 85% and the 3H-thymidine uptake [1, 6] was 0.8 net cpm. The “% inhibition” value ([1]; PHA, ganglioside 2.5 μM) was 3%, the 3H-thymidine uptake ([1]; PHA, ganglioside 2.5 μM) was 75.4 net cpm and the “% inhibition” value ([1]; PHA, ganglioside 10 μM) was 11%. The 3H-thymidine uptake ([1]; PHA, ganglioside 10 μM) was 69.2 net cpm, the “% inhibition” value ([1]; PWM, ganglioside 2.5 μM) was 7% and the 3H-thymidine uptake ([1]; PWM, ganglioside 2.5 μM) was 13.0 net cpm. The “% inhibition” value ([1]; PWM, ganglioside 10 μM) was 68%, the 3H-thymidine uptake ([1]; PWM, ganglioside 10 μM) was 4.5 net cpm and the 3H-thymidine uptake ([1]; Tetanus Toxoid, ganglioside 2.5 μM) was 8.8 net cpm. For the same substance, the “% inhibition” value [1, 7] was 88%, the 3H-thymidine uptake [1, 7] was 3.2 net cpm and the IC90 [2] was 2.3 µM.

Substance GD1b has an IC90 [2] of 4.5 µM.

Work on GT1b yielded an IC90 [2] of 2.8 µM.

asialo-GM1 [reference compound] was tested, and the “immunosuppressive activity (in words)” value [2] was “does not substantially alter activity”.

“galactosylceramide [asialo-GM4, reference compound]” was tested, and the IC50 ([2]; tetanus toxoid-induced lymphoproliferation, read-out: ID50 (the source's name)) was 13 µM.

With sialosylceramide [GM5] the “predicted immunosuppressive activity (in words)” value ([2]; inferred from Table 2 trend) was “very active as an immunosuppressant”.
